Biological target: T1, human 11β-HSD 1 (Homo sapiens, UniProt P28845)
T1 construct: evaluated on primary human adipocytes in culture (ZenBio); host or cells: primary human preadipocytes differentiated into adipocytes, from three donors
Assay: Inhibition of human 11β-HSD 1 in primary human differentiated adipocytes in culture (cortisone to cortisol, SPA)
Assay type: cell-based
Protocol: Inhibition of human 11β-HSD 1 enzyme is evaluated on primary human adipocytes in culture (ZenBio).
Preadipocytes are thawed and their viability is confirmed. The preadipocytes are then placed in 96-well microplates in a specific preadipocyte medium (PM-1) provided by ZenBio; the plates are incubated at 37° C. with 5% CO2. One day or more after the cells are confluent, PM-1 is replaced with a more specific differentiation medium (DM), also provided by ZenBio, containing isobutylmethylxanthine, insulin, dexamethasone and a PPAR agonist. The cells will differentiate into adipocytes after a minimum of 7 days. Next, the mature adipocytes are maintained for 4 to 6 days in adipocyte maintenance medium (AM). Then, in the presence of serum treated with dextran-coated charcoal, the cells are placed in steroid-deficient conditions for 48 h, and are pretreated with the inhibitors to be tested or their carrier (0.1% DMSO) for 1 h at 37° C. before the pulse with cortisone. Tritiated cortisone is added for 4 hours to reach a final concentration of 20 nM. The cortisol concentration is quantified from the cell supernatant using SPA technology. EC50 values are obtained with the SigmaPlot v.11 software, four parameter logistic equation; the reported values come from three different experiments carried out on three different donors.

T1 sequence (P28845 whole entry): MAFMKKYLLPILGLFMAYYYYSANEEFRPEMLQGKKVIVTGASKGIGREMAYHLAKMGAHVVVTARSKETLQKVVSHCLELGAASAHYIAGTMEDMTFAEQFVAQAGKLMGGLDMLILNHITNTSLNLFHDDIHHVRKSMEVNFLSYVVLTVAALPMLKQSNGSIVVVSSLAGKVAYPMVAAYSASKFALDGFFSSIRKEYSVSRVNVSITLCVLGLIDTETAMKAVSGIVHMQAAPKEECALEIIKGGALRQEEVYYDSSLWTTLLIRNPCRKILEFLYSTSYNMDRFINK

SMILES: CN1C(C(=O)c2ccc3ccccc3c2)=C([O-])c2ccccc2S1(=O)=O.[K+] [Compound 1K, potassium 3-(2-naphthoyl)-2-methyl-2H-benzo[e][1,2]thiazin-4-olate 1,1-dioxide]
- Emax (% inhibition at 10 μM) (10 μM): 97 % inhibition
- EC50 (1 h pretreatment, 20 nM tritiated cortisone 4 h, three donors): 58 nM
